Numbered stars: 1 amine (or outer) side, 2 acyl side, 3 side chain; on linkers, the order of the positions; unused ones are H or OH. Bridge positions count the residues as written; N and C are the ends. Square brackets hold non-standard residues; d marks the D form. Peptide text beside a SMILES is read from it. * marks the point of attachment. 5FAM = O=C1OC2(c3ccc(O)cc3Oc3cc(O)ccc32)c2ccc(C(=O)*)cc21; 1Nal = N[C@@H](Cc1cccc2ccccc12)C(=O)O; TBMB = c1c(C[*:1])cc(C[*:3])cc1C[*:2]; Tle = CC(C)(C)[C@H](N)C(=O)O; βAla = NCCC(=O)O; Sar = CNCC(=O)O
Experiments:
Assay in all cases: FP selectivity against related metalloproteinases
Format in all cases: binding
Settings in all cases: Table 14
MMP-16 = MMP-16 (Homo sapiens, UniProt P51512)
Procedure: (§1) The N-terminally fluoresceinated derivative of 17-69-07-N241 (termed 17-69-07-N258, of the sequence: Fluorescein-(bAla)-Sar10-A-(17-69-07) D-Ala1 1Nal4 D-Ala5 tBuGly11) was tested against related human metalloproteinases.

MMP-2 = molecular target: T1, MMP-2 (Homo sapiens, UniProt P08253)
T1 sequence (P08253 110-660): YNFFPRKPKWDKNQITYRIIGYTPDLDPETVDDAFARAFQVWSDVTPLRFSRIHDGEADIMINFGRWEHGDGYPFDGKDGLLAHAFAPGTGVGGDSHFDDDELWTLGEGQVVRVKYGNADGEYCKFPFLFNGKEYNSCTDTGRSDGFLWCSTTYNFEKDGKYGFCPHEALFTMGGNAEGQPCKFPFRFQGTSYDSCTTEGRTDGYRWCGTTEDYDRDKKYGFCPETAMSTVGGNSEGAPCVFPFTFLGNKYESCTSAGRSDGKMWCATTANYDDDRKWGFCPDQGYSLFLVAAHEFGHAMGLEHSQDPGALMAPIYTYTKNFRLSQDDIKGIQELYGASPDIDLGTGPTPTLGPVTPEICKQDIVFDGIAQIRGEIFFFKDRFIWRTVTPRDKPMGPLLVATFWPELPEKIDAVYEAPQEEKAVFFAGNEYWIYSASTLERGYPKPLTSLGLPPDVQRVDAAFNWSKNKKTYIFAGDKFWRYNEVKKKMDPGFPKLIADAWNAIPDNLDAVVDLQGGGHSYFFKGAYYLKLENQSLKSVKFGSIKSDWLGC
Procedure: as §1

MMP-15 = MMP-15 (Homo sapiens, UniProt P51511)
Procedure: as §1

MMP-1 = molecular target: T2, MMP-1 (Homo sapiens, UniProt P03956)
T2 sequence (P03956 100-469): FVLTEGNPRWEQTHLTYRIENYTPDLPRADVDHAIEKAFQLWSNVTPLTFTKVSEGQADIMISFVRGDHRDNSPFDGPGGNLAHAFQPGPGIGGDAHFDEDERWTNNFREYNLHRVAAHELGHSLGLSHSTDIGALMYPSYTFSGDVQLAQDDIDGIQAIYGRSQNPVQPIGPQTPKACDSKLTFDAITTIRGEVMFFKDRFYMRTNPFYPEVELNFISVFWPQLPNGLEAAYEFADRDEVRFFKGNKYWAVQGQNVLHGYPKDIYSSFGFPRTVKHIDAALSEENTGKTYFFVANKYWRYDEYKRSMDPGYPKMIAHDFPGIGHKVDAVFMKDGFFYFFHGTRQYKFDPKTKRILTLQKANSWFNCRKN
Procedure: as §1

Measured: Kd

Chain of MMP-16 (P51512 120-607): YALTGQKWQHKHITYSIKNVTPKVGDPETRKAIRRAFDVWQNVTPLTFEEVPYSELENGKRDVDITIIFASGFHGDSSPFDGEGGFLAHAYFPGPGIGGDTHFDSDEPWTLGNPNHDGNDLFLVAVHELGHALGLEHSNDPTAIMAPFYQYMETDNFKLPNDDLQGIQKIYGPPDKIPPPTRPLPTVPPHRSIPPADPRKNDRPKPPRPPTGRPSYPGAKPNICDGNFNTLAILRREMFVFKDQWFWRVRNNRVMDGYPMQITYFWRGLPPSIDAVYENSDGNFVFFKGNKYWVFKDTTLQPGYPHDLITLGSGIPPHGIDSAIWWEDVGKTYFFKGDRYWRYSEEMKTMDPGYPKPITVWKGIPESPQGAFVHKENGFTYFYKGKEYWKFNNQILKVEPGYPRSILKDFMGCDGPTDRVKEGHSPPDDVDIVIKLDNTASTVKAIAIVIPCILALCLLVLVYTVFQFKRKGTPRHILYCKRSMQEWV
Chain of MMP-15 (P51511 132-669): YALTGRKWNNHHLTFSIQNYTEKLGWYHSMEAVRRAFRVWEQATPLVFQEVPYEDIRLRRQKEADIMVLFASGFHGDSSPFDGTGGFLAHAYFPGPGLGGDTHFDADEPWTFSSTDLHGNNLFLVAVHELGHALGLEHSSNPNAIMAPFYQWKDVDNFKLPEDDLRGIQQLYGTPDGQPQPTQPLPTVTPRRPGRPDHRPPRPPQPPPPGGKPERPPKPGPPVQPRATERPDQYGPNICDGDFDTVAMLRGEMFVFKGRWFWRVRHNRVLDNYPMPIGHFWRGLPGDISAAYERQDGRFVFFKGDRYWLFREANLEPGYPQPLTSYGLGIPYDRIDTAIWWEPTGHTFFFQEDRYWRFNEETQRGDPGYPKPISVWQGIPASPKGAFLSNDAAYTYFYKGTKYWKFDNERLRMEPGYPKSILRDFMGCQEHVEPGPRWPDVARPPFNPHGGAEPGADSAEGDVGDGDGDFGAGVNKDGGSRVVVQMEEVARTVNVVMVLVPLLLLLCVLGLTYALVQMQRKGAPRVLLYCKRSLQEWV

C[C@H](NC(=O)CN(C)C(=O)CN(C)C(=O)CN(C)C(=O)CN(C)C(=O)CN(C)C(=O)CN(C)C(=O)CN(C)C(=O)CN(C)C(=O)CN(C)C(=O)CN(C)C(=O)CCNC(=O)c1ccc2c(c1)C(=O)OC21c2ccc(O)cc2Oc2cc(O)ccc21)C(=O)N[C@H]1CSCc2cc3cc(c2)CSC[C@H](NC(=O)[C@@H](C)NC(=O)[C@H](Cc2cccc4ccccc24)NC(=O)[C@H](CCC(=O)O)NC(=O)[C@H](CC(N)=O)NC(=O)[C@@H](C)NC1=O)C(=O)N[C@@H](CCC(=O)O)C(=O)N[C@@H](CC(=O)O)C(=O)N[C@@H](Cc1ccccc1)C(=O)N[C@@H](Cc1ccc(O)cc1)C(=O)N[C@@H](CC(=O)O)C(=O)N[C@@H](C(C)(C)C)C(=O)N[C@H](C(N)=O)CSC3 [17-69-07-N258, Fluorescein-(bAla)-Sar10-A-(17-69-07) D-Ala1 1Nal4 D-Ala5 tBuGly11] ({5FAM-βAla}-[Sar][Sar][Sar][Sar][Sar][Sar][Sar][Sar][Sar][Sar]AC[dA]NE[1Nal][dA]CEDFYD[Tle]C-NH2; linker 12-18-25 via TBMB)
> 1000 nM: all assays above

Source: patent US11672868B2, “Bicyclic peptide ligands specific for MT1-MMP” (priority 2014, dated 2023)
